Results on seven molecules are retold here after patent US7897773B2, “Urea derivatives of tropane, their preparation and their therapeutic application” (Sanofi-Aventis, priority 2006, dated 2011).

As a reminder, the melting point is the temperature, or range, at which the solid turns liquid.

For data set [1], the target named is T1, 11beta-HSD1 enzyme (Homo sapiens, UniProt P28845).
T1 construct: made in house; host or cells: Saccharomyces cerevisiae
Description: SPA (Scintillation Proximity Assay) of 11beta-HSD1 inhibition, 384 well format. The data set is classed as biochemical. On the procedure:
The compounds according to the invention were the subject of pharmacological tests for determining their inhibitory activity on the 11beta-HSD1 enzyme which is an enzyme involved in lipid metabolism or glucose metabolism.
These tests consisted in measuring the in vitro inhibitory activity of the compounds of the invention by virtue of an SPA (Scintillation Proximity Assay) in 384 well format. The recombinant 11beta-HSD1 protein was produced in the yeast S. cerevisiae. The reaction was carried out by incubating the enzyme in the presence of ^3H-cortisone and NADPH, in the absence or in the presence of an increasing concentration of inhibitor. SPA beads coupled to an anti-mouse antibody, pre-incubated with an anti-cortisol antibody, made it possible to measure the amount of cortisol formed during the course of the reaction.
The inhibitory activity with respect to the 11beta-HSD1 enzyme is given by the concentration which inhibits 50% of the activity of 11beta-HSD1 (IC50).
On the technique in general: In a scintillation proximity assay essentially only radioactivity close to the scintillant gives light.

The target of data set [2] is T2, 11βHSD1 in the eyes (Homo sapiens, UniProt P28845).
T2 construct: The functional activity of 11βHSD1 in the eyes has been evaluated by studying the action of carbenoxolone in normal volunteers; host or cells: ocular tissue of human volunteers (in vivo)
The settings on record: normal volunteers; after seven days of treatment; cited from earlier work.

Setting [3] is: recombinant 11beta-HSD1 produced in yeast S. cerevisiae, 3H-cortisone and NADPH, read-out: concentration which inhibits 50% of the activity of 11beta-HSD1 (IC50).

pIC50: −log10 of the molar value. Several values for one entry are separate records, joined by “and”; a condition that tells them apart may be missing. Equal entries are not always repeated. Structures can show the parent of a compound that is named as a salt. Where two headings read alike, the source gives them in different places.

T1 sequence (P28845 whole entry, species assumed): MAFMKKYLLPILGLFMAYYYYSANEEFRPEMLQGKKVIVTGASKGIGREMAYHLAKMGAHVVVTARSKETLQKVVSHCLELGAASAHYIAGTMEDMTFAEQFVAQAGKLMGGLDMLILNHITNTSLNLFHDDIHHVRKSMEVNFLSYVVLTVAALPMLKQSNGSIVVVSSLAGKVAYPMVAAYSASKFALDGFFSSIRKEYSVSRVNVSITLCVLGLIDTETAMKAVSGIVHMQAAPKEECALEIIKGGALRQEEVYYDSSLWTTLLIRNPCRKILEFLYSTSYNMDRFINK
T2 sequence (P28845 whole entry): as the sequence (P28845 whole entry, species assumed) above

Regarding `O=C(N1CCCc2ccccc21)N1C2C=C(c3cccc4[nH]ccc34)CC1CC2` (centres unmarked) [Compound 28, (3,4-dihydro-2H-quinolin-1-yl)-[3-(1H-indol-4-yl)-8-azabicyclo[3.2.1]oct-2-en-8-yl]methanone], the pIC50 in data set [1] (setting [3]) was 6.72.
For the molecule `O=C(N1CCCc2ccccc21)N1C2CCC1CC(c1ccccc1)C2` (centres unmarked) [Compound 7, (3,4-dihydro-2H-quinolin-1-yl)-(3-phenyl-8-azabicyclo-[3.2.1]oct-8-yl)methanone], the melting point was 133 to 134 °C. The pIC50 in data set [1] (setting [3]) was 8.40.
In the case of `O=C(N1CCCc2ccccc21)N1C2C=C(c3cccnc3F)CC1CC2` (centres unmarked) [Compound 13, (3,4-dihydro-2H-quinolin-1-yl)-[3-(2-fluoropyridin-3-yl)-8-azabicyclo[3.2.1]oct-2-en-8-yl]methanone], the pIC50 in data set [1] is 6.91.
As for `O=C(N1CCCc2ccccc21)N1C2CCC1CC(c1cccnc1)C2` (centres unmarked) (as salt: HCl) [Compound 4, 1-[(3-pyridin-3-yl-8-azabicyclo[3.2.1]oct-8-yl)carbonyl]-1,2,3,4-tetrahydroquinoline Hydrochloride], the melting point was 218 to 220 °C and 218 to 222 °C.
In the case of `CC1(C)[C@@H](OC(=O)CCC(=O)O)CC[C@]2(C)[C@H]3C(=O)C=C4[C@@H]5C[C@@](C)(C(=O)O)CC[C@]5(C)CC[C@@]4(C)[C@]3(C)CC[C@@H]12` [carbenoxolone], the “IOP is reduced by” value in data set [2] is listed as 18%.
`O=C(N1CCCc2ccccc21)N1C2CCC1CC(c1cccnc1)C2` (centres unmarked) [Compound 4, 1-[(3-pyridin-3-yl-8-azabicyclo[3.2.1]oct-8-yl)carbonyl]-1,2,3,4-tetrahydroquinoline Hydrochloride]: in data set [1], the pIC50 was 7.72.
For the molecule `O=C(N1CCCc2ccccc21)N1C2CCC1CC(c1ccc(F)nc1)C2` (centres unmarked) (as salt: HCl), the melting point lay in the range of 98 to 99 °C.
